The test system of experiment [1] is corneal kindled mouse (fully expressed secondarily generalized seizure). Conditions: i.p.; ref Rowley et al., manuscript in preparation; cited from earlier work.
Experiment [2] deals with CF-1 mice (seizures induced by 6 Hz corneal stimulation). Conditions: cited from earlier work; for ED50, 6 Hz model, 44 mA (95% confidence interval) / ED50, 6 Hz model, 32 mA (95% confidence interval): ref Barton et al., 2001[19].
Experiment [3] concerns non-galanin receptors (5-HT-1A and 1B, D2 dopamine, ghrelin, melanocortin, NPY, μ-opioid receptors). Conditions: at 10 μM, NPY (galnon only), μ-opioid (galmic only); cited from earlier work.
Experiment [4] relates to galanin receptors GalR1 and GalR2. Conditions: cited from earlier work; for Fold difference in affinity for GalR1 and GalR2: receptor subtype specificity.
Experiment [5] has as its system CF-1 mice (seizures induced by 6 Hz corneal stimulation). In words: 6 Hz psychomotor seizure test. The class given is in vivo, mouse. Conditions: 4 mg/kg i.p.

Read-outs that look alike come from different tables or passages of the source. Where a SMILES comes first, the peptide text is derived from it. [ ]: non-standard residue; d: D form. The star is where a group is joined. Fmoc = O=C(OCC1c2ccccc2-c2ccccc21)*; Cha = N[C@@H](CC1CCCCC1)C(=O)O; AMC = Cc1cc(=O)oc2cc(N*)ccc12

In the case of `NC(=O)N1c2ccccc2C=Cc2ccccc21` [CBZ, carbamazepine], the “Active dose in corneal kindled mouse model” value in experiment [1] is on record as 33 mg/kg.

In the case of `CCC1(C)CC(=O)NC1=O` (centres unmarked) [Ethosuximide, ethosuximide], the “ED50, 6 Hz model, 44 mA (95% confidence interval)” value in experiment [2] (i.p.) is given as greater than 600 mg/kg.

In general, ED50 refers to the midpoint of the dose-response relation. `COC[C@@H](NC(C)=O)C(=O)NCc1ccccc1` [Lacosamide]: the ED50 in experiment [2] (read-out: ED50, 6 Hz model, 32 mA (95% confidence interval), i.p., 32 mA, ref Stöhr et al., 2007[44]) is 9.9 mg/kg.

`Nc1nnc(-c2cccc(Cl)c2Cl)c(N)n1` [Lamotrigine, lamotrigine]: the “ED50, 6 Hz model, 32 mA (95% confidence interval)” value in experiment [2] (i.p., 32 mA) was greater than 60 mg/kg. Also, the “ED50, 6 Hz model, 44 mA (95% confidence interval)” value in experiment [2] (i.p.) was greater than 60 mg/kg.

Consider `O=C1NC(=O)C(c2ccccc2)(c2ccccc2)N1` [Phenytoin, phenytoin], for which the “ED50, 6 Hz model, 32 mA (95% confidence interval)” value in experiment [2] (i.p., 32 mA) is recorded as greater than 60 mg/kg. Further, in experiment [2] (i.p.), the “ED50, 6 Hz model, 44 mA (95% confidence interval)” value is recorded as greater than 60 mg/kg.

With `COC(=O)[C@H](CCCCN)NC(=O)[C@]1(C)NC(=O)c2nc(oc2C)[C@](C)(C(=O)NC2c3ccccc3-c3ccccc32)NC(=O)c2nc(oc2C)[C@](C)(C(=O)NCC2CCCCC2)NC(=O)c2nc1oc2C` [galmic], in experiment [3], the “Interaction with non-galanin receptors” value was “interact with a variety of non-galanin receptors”. Further, in experiment [4], the “Fold lower affinity for galanin receptors relative to the native peptide” value is reported as 10,000-100,000 fold; the “Fold difference in affinity for GalR1 and GalR2” value is 2-3 fold.

Consider `Cc1cc(=O)oc2cc(NC(=O)[C@H](CCCCN)NC(=O)[C@H](CC3CCCCC3)NC(=O)OCC3c4ccccc4-c4ccccc43)ccc12` [galnon] (Fmoc-[Cha]-Lys-{AMC}), for which the “Interaction with non-galanin receptors” value in experiment [3] is on record as “interact with a variety of non-galanin receptors”. Besides, in experiment [4], the “Fold lower affinity for galanin receptors relative to the native peptide” value is reported as 10,000-100,000 fold; the “Fold difference in affinity for GalR1 and GalR2” value is given as 2-3 fold.

For the compound Ac-YLLGPKK(Lys-P)K [NAX 5055 truncated], the “Activity in 6 Hz 32 mA model (in words)” value in experiment [5] (32 mA, tested across time) was “inactive”. Besides, the “Mice protected from seizures / mice tested, 15′” value in experiment [5] (6 Hz 32 mA, CF-1 mice, 15 min, groups of four) is 0/4. Also, in experiment [5] (6 Hz 32 mA, CF-1 mice, 30 min, groups of four), the “Mice protected from seizures / mice tested, 30′” value is recorded as 0/4. In addition, the “Mice protected from seizures / mice tested, 60′” value in experiment [5] (6 Hz 32 mA, CF-1 mice, 60 min, groups of four) was 0/4. For the same compound, the “Mice protected from seizures / mice tested, 120′” value in experiment [5] (6 Hz 32 mA, CF-1 mice, 120 min, groups of four) is on record as 0/4. The “Mice protected from seizures / mice tested, 240′” value in experiment [5] (6 Hz 32 mA, CF-1 mice, 240 min, groups of four) is listed as 0/4.

With GWTLNSAGYLLGPHAV-NH2 [Gal(1-16)], the “Activity in 6 Hz 32 mA model (in words)” value in experiment [2] (4 mg/kg i.p., 32 mA, ref Bulaj et al, 2008.[17]) is “inactive”.
